{"source": "patent US20150024025A1", "about": "“ALIGNED N[…] AXONAL RE[…] SPINAL CORD INJURY OR SURGERY” (THE UAB RESEARCH FOUNDATION, priority 2012, published 2015)", "origin": "cited, not measured here", "test_system": "spinal cord injury", "data": [{"substance": "chondroitinase ABC", "values": [{"measurement": "axonal repair and regeneration in vivo after spinal cord injury", "result": "promotes axonal repair and regeneration"}]}]}
